Reference: patent US20220371988A1, “TRPV1 AGONIST AND PREPARATION METHOD THEREFOR AND USE THEREOF” (NANJING DELOVA BIOTECH CO. LTD., priority 2019, published 2022)
Converted amounts (≈) assume the structure as drawn. Like-named read-outs stand apart in the source and are kept apart here.

Key:
[1] = test system: rats as models of pain after incision; assay: Mechanical allodynia test (Von Frey method) in rats as models of pain after incision; type: in vivo, SD rat
[2] = parent drug, cited from earlier work
[3] = test system: rats as models of pain after incision; assay: Thermal hyperalgesia test (Hargreaves method) in rats as models of pain after incision; type: in vivo, SD rat
[4] = HD group: A-17 0.6 mg/animal, parent 0.36 mg/animal
[5] = LD group: A-17 0.15 mg/animal, parent 0.09 mg/animal

Molecule	Time after surgery at which paw withdrawal threshold (PWT) was increased vs blank preparation group (P<0.05) [1, 4]	Time after surgery at which paw withdrawal threshold (PWT) was increased vs blank preparation group (P<0.05) [1, 5]	Solubility in water ([2]; at 25° C.)	Log P [2]	Effect on overall thermal hyperalgesia (AUC of time-TWL curve) within 7 days vs blank preparation ([3]; HD group: A-17 0.6 mg/animal (P<0.001), parent 0.36 mg/animal (P<0.01))	Duration of analgesic effect on thermal hyperalgesia [3, 4]	Effect on overall thermal hyperalgesia (AUC of time-TWL curve) within 7 days vs blank preparation [3, 5]	Time after surgery at which thermal withdrawal latency (TWL) was increased vs blank preparation group (P<0.05) ([3]; LD group: A-17 0.15 mg/animal, parent 0.09 mg/animal, injection at incision site)	Release half-life t1/2 (pH 4.5)	Release half-life t1/2 (pH 7.4)
COc1cc(CNC(=O)CCCC/C=C/C(C)C)ccc1O [trans-8-methyl-N-vanillyl-6-nonenamide]	4 h	no significant effect	8.41 µg/mL (≈ 27.5 µM)	3.8	effective in relieving the overall thermal hyperalgesia	3 days	no significant effect	1 h	–	–
(E)-2-methoxy-4-(8-methylnonanamide)phenyl 2-([[1,4′-bipiperidin]-1′-yl) propanoate hydrochloride [Compound A-16]	–	–	–	–	–	–	–	–	About 73 h	About 157 h
